The text below walks through data of patent US20260034123A1 (Cedilla Therapeutics, Inc., priority 2022, published 2026).

In experiment [1] the target is T1, CDK2/Cyclin E1 (Homo sapiens, UniProt P24941). Nature of the experiment: Caliper LabChip EZ Reader mobility shift assay. The experiment is classed as biochemical. To be noted: 2.5 nM CDK2/Cyclin E1(14-475), 100 μM ATP, 30 min preincubation; read-out: Caliper Assay (CDK2/CCNE1): IC50. The procedure: Inhibition of CDK2/Cyclin E1 activity in the presence of compounds of the present disclosure was evaluated using a Caliper LabChip® EZ Reader mobility shift assay. In the assay, activated CDK2/Cyclin E1 catalyzes the phosphorylation of a fluorescently tagged peptide 5-FAM-QSPKKG-CONH2 (PerkinElmer, FL Peptide 18) which induces a difference in capillary electrophoresis mobility. The peptide substrate and product were measured, and the conversion ratio was used to determine the inhibition (as % activity and IC50 values) of CDK2/Cyclin E1. Reactions contained 50 mM HEPES pH 7.5, 10 mM MgCl2, 1 mM EDTA, 2 mM DTT, 0.01% Brij35, 0.5 mg/mL BSA, 0.1% DMSO, 2.5 nM CDK2/Cyclin E1(14-475), 100 μM ATP, and 1.5 μM fluorescent peptide substrate.
Dose titrations of inhibitors in 100% DMSO were combined with 3.25 nM CDK2/Cyclin E1(14-475) and 130 μM of ATP in reaction buffer. The mixtures were incubated for 30 minutes before the addition of fluorescent peptide substrate to initiate the kinase reaction. The final conditions were 2.5 nM CDK2/Cyclin E1(14-475), 100 μM ATP, and 1.5 μM fluorescent peptide. The reactions were stopped after 100 minutes with the addition of EDTA (6 mM final EDTA concentration). The stopped reactions were analyzed on a Caliper LabChip® EZ Reader 11. The conversion ratios were normalized to yield % activity, plotted against compound concentration, and fit to a four-parameter equation to determine the IC50 for each compound.

Another experiment has as its system Kuramochi cells RB-WT. The experiment can be described thus: IncuCyte Kuramochi cell proliferation assay, RB-WT. It is filed as cell-based. To be noted: 72 hours, cell count. In outline:
(§1)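 mApple-H2B-labelled Kuramochi cells were treated with a 10-point, half-log series (top 20 µM) and imaged at 0 and 72 h. Fluorescent nuclei were counted, and the 0–72 h fold change was normalized to DMSO wells. GI50 came from dose-response fits.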

In experiment [2] the target is T1, CDK2/Cyclin E1. The experiment can be described thus: ADP-Glo Luminescent Kinase Assay (CDK2/E1-37C). It is filed as biochemical. To be noted: 0.18 nM CDK2/Cyclin E1, 100 μM ATP, Histone H1, 37° C.; read-out: ADPGLO (CDK2/E1-37C): IC50. In outline:
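Activated CDK2/Cyclin E1 (0.18 nM final) preincubated with compound 60 min at 37 °C, then reacted with 100 μM ATP and Histone H1 ([…]) for 90 min at 37 °C in HEPES pH 7.5 buffer. ADP-Glo luminescence normalized to % activity; IC50 from four-parameter fit.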

The next experiment relates to Kuramochi cells RB-KO. The experiment can be described thus: IncuCyte Kuramochi cell proliferation assay, RB-KO. The experiment is classed as cell-based. To be noted: 72 hours, cell count, batch mean. The gist of the method: as §1

Regarding `O=C(c1cncs1)N1C[C@@H](COCc2cccc(-c3ccc(C4(C(F)(F)F)CC4)cc3)n2)C2(CN(CC3CCCO3)C2)C1` (stereo partly drawn) [Compound I-7, ((8S)-2-((tetrahydrofuran-2-yl)methyl)-8-(((6-(4-(1-(trifluoromethyl)cyclopropyl)phenyl)pyridin-2-yl)methoxy)methyl)-2,6-diazaspiro[3.4]octan-6-yl)(thiazol-5-yl)methanone], the IC50 on CDK2/Cyclin E1 [1] and in the experiment with Kuramochi cells RB-WT was more than 10 µM each time.
Consider `O=C(c1cncs1)N1C[C@@H](COCc2cccc(-c3ccc(C4CC4)cc3)n2)C2(CN(CC3CCCO3)C2)C1` (stereo partly drawn) [Compound I-8, ((8S)-8-(((6-(4-cyclopropylphenyl)pyridin-2-yl)methoxy)methyl)-2-((tetrahydrofuran-2-yl)methyl)-2,6-diazaspiro[3.4]octan-6-yl)(thiazol-5-yl)methanone], for which the IC50 on CDK2/Cyclin E1 [1] and in the experiment on Kuramochi cells RB-WT was more than 10 µM throughout.
Consider `CC1(C)C[C@@H]1C(=O)N1CC2(CN(CC3CCCO3)C[C@H]2CNC(=O)c2cccc(-c3ccc(C(F)(F)F)cc3)n2)C1` (stereo partly drawn) [Compound I-9, N-(((8R)-2-((S)-2,2-dimethylcyclopropane-1-carbonyl)-6-((tetrahydrofuran-2-yl)methyl)-2,6-diazaspiro[3.4]octan-8-yl)methyl)-6-(4-(trifluoromethyl)phenyl)picolinamide], for which the IC50 at CDK2/Cyclin E1 [1] and in the experiment on Kuramochi cells RB-WT was more than 10 µM throughout.
For `COc1ccccc1-c1cccc(C(=O)NC[C@@H]2CN(CC3CCCO3)CC23CN(C(=O)[C@H]2CC2(C)C)C3)n1` (stereo partly drawn) [Compound I-10, N-(((8R)-2-((S)-2,2-dimethylcyclopropane-1-carbonyl)-6-((tetrahydrofuran-2-yl)methyl)-2,6-diazaspiro[3.4]octan-8-yl)methyl)-6-(2-methoxyphenyl)picolinamide], the IC50 is 1 to 10 µM on CDK2/Cyclin E1 [1] and more than 10 µM in the experiment on Kuramochi cells RB-WT.
In the case of `O=C(c1cncs1)N1C[C@@H](COCc2cccc(-c3ccc(C(F)(F)F)cc3)n2)C2(CN(CC3CCCO3)C2)C1` (stereo partly drawn) [Compound I-11, ((8S)-2-((Tetrahydrofuran-2-yl)methyl)-8-(((6-(4-(trifluoromethyl)phenyl)pyridin-2-yl)methoxy)methyl)-2,6-diazaspiro[3.4]octan-6-yl)(thiazol-5-yl)methanone], the IC50 at CDK2/Cyclin E1 [1] and in the experiment on Kuramochi cells RB-WT was more than 10 µM each time.
Consider `O=C([C@H]1CC1(F)F)N1CC2(CN(Cc3cncs3)C[C@H]2COCc2cccc(-c3ccc(C(F)(F)F)cc3)n2)C1` [Compound I-12, ((R)-2,2-difluorocyclopropyl)((S)-6-(thiazol-5-ylmethyl)-8-(((6-(4-(trifluoromethyl)phenyl)pyridin-2-yl)methoxy)methyl)-2,6-diazaspiro[3.4]octan-2-yl)methanone], for which the IC50 at CDK2/Cyclin E1 [1] and in the experiment on Kuramochi cells RB-WT was more than 10 µM each time.
For the compound `CC1(C)C[C@@H]1C(=O)N1CC2(CN(C(=O)c3cncs3)C[C@H]2COC(COC2CCC(F)(F)CC2)c2cccc(C3CCOCC3)n2)C1` (stereo partly drawn) [Compound I-13, ((8S)-8-((2-((4,4-difluorocyclohexyl)oxy)-1-(6-(tetrahydro-2H-pyran-4-yl)pyridin-2-yl)ethoxy)methyl)-2-((S)-2,2-dimethylcyclopropane-1-carbonyl)-2,6-diazaspiro[3.4]octan-6-yl)(thiazol-5-yl)methanone], the IC50 on CDK2/Cyclin E1 [1] was 0.1 to 1 µM; in the experiment with Kuramochi cells RB-WT it was more than 10 µM.
Consider `CC(OC[C@@H]1CN(C(=O)c2cncs2)CC12CN(C(=O)[C@H]1CC1(C)C)C2)c1cccc(C2CCOCC2)n1` (stereo partly drawn) [Compound I-14, ((S)-2-((S)-2,2-dimethylcyclopropane-1-carbonyl)-8-((1-(6-(tetrahydro-2H-pyran-4-yl)pyridin-2-yl)ethoxy)methyl)-2,6-diazaspiro[3.4]octan-6-yl)(thiazol-5-yl)methanone], for which the IC50 is 1 to 10 µM on CDK2/Cyclin E1 [1] and more than 10 µM in the experiment with Kuramochi cells RB-WT.
For `O=C(c1cncs1)N1C[C@@H](COCc2cccc(-c3ccc(C(F)(F)F)cc3)n2)C2(CN(CC3COC3)C2)C1` [Compound I-15, (S)-(2-(oxetan-3-ylmethyl)-8-(((6-(4-(trifluoromethyl)phenyl)pyridin-2-yl)methoxy)methyl)-2,6-diazaspiro[3.4]octan-6-yl)(thiazol-5-yl)methanone] the same measures were more than 10 µM and more than 10 µM.
Consider `CC(C)(C)CN1CC2(C1)CN(C(=O)c1cncs1)C[C@H]2COCc1cccc(-c2ccc(C(F)(F)F)cc2)n1` [Compound I-16, (S)-(2-neopentyl-8-(((6-(4-(trifluoromethyl)phenyl)pyridin-2-yl)methoxy)methyl)-2,6-diazaspiro[3.4]octan-6-yl)(thiazol-5-yl)methanone], for which the results for the IC50 at CDK2/Cyclin E1 [1] and with Kuramochi cells RB-WT were more than 10 µM and 5 to 10 µM, respectively.
For `CC(C)(C)CN1CC2(C1)CN(C(=O)c1cnccn1)C[C@H]2COCc1cccc(-c2ccc(C(F)(F)F)cc2)n1` [Compound I-17, (S)-(2-neopentyl-8-(((6-(4-(trifluoromethyl)phenyl)pyridin-2-yl)methoxy)methyl)-2,6-diazaspiro[3.4]octan-6-yl)(pyrazin-2-yl)methanone] the same measures were more than 10 µM and more than 10 µM.
Take `CC1(C)C[C@@H]1C(=O)N1CC2(CN(C(=O)c3cnccn3)C[C@H]2COCc2cccc(-c3ccc(C(F)(F)F)cc3)n2)C1` [Compound I-18, ((S)-2-((S)-2,2-dimethylcyclopropane-1-carbonyl)-8-(((6-(4-(trifluoromethyl)phenyl)pyridin-2-yl)methoxy)methyl)-2,6-diazaspiro[3.4]octan-6-yl) (pyrazin-2-yl)methanone]: the IC50 is 0.01 to 0.1 µM on CDK2/Cyclin E1 [1] and more than 10 µM in the experiment on Kuramochi cells RB-WT.
On to `CC1(C)C[C@@H]1C(=O)N1CC2(CN(Cc3cnccn3)C[C@H]2COCc2cccc(-c3ccc(C(F)(F)F)cc3)n2)C1` [Compound I-19, ((S)-2,2-dimethylcyclopropyl)((S)-6-(pyrazin-2-ylmethyl)-8-(((6-(4-(trifluoromethyl)phenyl)pyridin-2-yl)methoxy)methyl)-2,6-diazaspiro[3.4]octan-2-yl) methanone], for which the IC50 at CDK2/Cyclin E1 [1] and in the experiment on Kuramochi cells RB-WT was more than 10 µM in each case.
For the compound `CC1(C)C[C@@H]1C(=O)N1CC2(CN(C(=O)c3cncs3)C[C@H]2COCc2cccc(-c3cccnc3)n2)C1` [Compound I-20, ((S)-8-(([2,3′-bipyridin]-6-ylmethoxy)methyl)-2-((S)-2,2-dimethylcyclopropane-1-carbonyl)-2,6-diazaspiro[3.4]octan-6-yl)(thiazol-5-yl)methanone], the IC50 on CDK2/Cyclin E1 [1] was 0.1 to 1 µM; in the experiment with Kuramochi cells RB-WT it was more than 10 µM.
For `CC1(C)C[C@@H]1C(=O)N1CC2(CN(C(=O)c3cncs3)C[C@H]2COCc2cccc(-c3ccc(C(F)(F)F)nc3)n2)C1` [Compound I-21, ((S)-2-((S)-2,2-dimethylcyclopropane-1-carbonyl)-8-(((6′-(trifluoromethyl)-[2,3′-bipyridin]-6-yl)methoxy)methyl)-2,6-diazaspiro[3.4]octan-6-yl)(thiazol-5-yl)methanone], the IC50 at CDK2/Cyclin E1 [1] is 0.1 to 1 µM; in the experiment on Kuramochi cells RB-WT, more than 10 µM.
As to `CC1(C)C[C@@H]1C(=O)N1CC2(CN(C(=O)c3cncs3)C[C@H]2COc2cccc3c(C4CCOCC4)cccc23)C1` [Compound I-22, ((S)-2-((S)-2,2-dimethylcyclopropane-1-carbonyl)-8-(((5-(tetrahydro-2H-pyran-4-yl)naphthalen-1-yl)oxy)methyl)-2,6-diazaspiro[3.4]octan-6-yl)(thiazol-5-yl)methanone], the IC50 on CDK2/Cyclin E1 [1] was 0.1 to 1 µM; in the experiment with Kuramochi cells RB-WT it was more than 10 µM.
For the compound `CC1(C)C[C@@H]1C(=O)N1CC2(CN(C(=O)c3cnn(Cc4ccc(F)cc4)c3)CC2COCc2cccc(C3CCC(C(F)(F)F)CC3)c2C(=O)O)C1` (stereo partly drawn) [I′-85, 2-(((2-((S)-2,2-dimethylcyclopropane-1-carbonyl)-6-(1-(4-fluorobenzyl)-1H-pyrazole-4-carbonyl)-2,6-diazaspiro[3.4]octan-8-yl)methoxy)methyl)-6-(4-(trifluoromethyl)cyclohexyl)benzoic acid], the IC50 on CDK2/Cyclin E1 [2] is not above 0.5 µM; with Kuramochi cells RB-WT, not above 0.5 µM; in the experiment with Kuramochi cells RB-KO, 5 to 10 µM.
In the case of `N#Cc1c(COCC2CN(C(=O)c3cnn(Cc4ccc(C(F)(F)F)cc4)c3)CC23CN(C(=O)C2(C(F)(F)F)CC2)C3)cccc1C1CCC(C(F)(F)F)CC1` (centres unmarked) [I′-86], the results for the IC50 on CDK2/Cyclin E1 [2], in the experiment on Kuramochi cells RB-WT and with Kuramochi cells RB-KO were 0.5 to 5 µM, more than 10 µM and more than 10 µM, respectively.
